# Test results: patent US11565005B2, “Dota-hapten compositions for anti-dota/anti-tumor antigen bispecific antibody pretargeted radioimmunotherapy” (MEMORIAL SLOAN KETTERING CANCER CENTER, priority 2017, dated 2023)
# Key:
# [1] = Biodistribution of [^225Ac]Proteus-DOTA alone in tumor-free nude mice; type: in vivo; conditions: hapten alone, 1 h p.i.
# Excerpt: Carcass radioactivity was not collected during this study.
# [2] = system: HER2-expressing BT-474 xenografts; assay: Ex vivo biodistribution of BsAb/hapten complex or hapten alone in BT-474 tumor-bearing mice; parameters: species or system athymic nude mice; conditions: 4 h after injection
# Procedure: The ^225Ac-Proteus-DOTA haptens were injected intravenously via the lateral tail vein and euthanized 4 hours later for organ collection and radioactivity assessment. Asterisk (*) indicates levels below the limit of detection. Two groups of nude mice with subcutaneous BT474 tumors (3 mice each) were treated with either: [^225Ac Proteus-DOTA] only (0.51 nmol/mouse; ˜30 nCi of ^225Ac/mouse) or PD10-purified [anti-HER2-C825/[^225Ac Proteus-DOTA] complex (estimate 1.79 nmol of ^225Ac Proteus-DOTA/mouse, 1.0 nmol of antibody/mouse; 100 nCi ^225Ac/mouse), and sacrificed 4 h post-injection for ex vivo biodistribution assay. The tissue samples were read in the gamma counter the following day at equilibrium.
# Biodistribution Experiments.
# To determine whether isolated BsAb/[^225Ac]Proteus-DOTA complexes could target tumors in vivo, a biodistribution assay was conducted after SEC purification with two groups of athymic nude mice (n=3) bearing subcutaneous HER2-expressing BT-474 xenografts. […]
# [3] = system: anti-HER2-C825; assay: In vitro mixing with DOTA-PRIT BsAb followed by size-exclusion chromatography; type: binding
# Procedure: In vitro Mixing of [^225Ac]Proteus-DOTA with a DOTA-PRIT BsAb, followed by In vivo Targeting Studies. […] After one week of storage of [^225Ac]Proteus-DOTA at room temperature, an in vitro mixing experiment consisting of mixing 145 μL of 6.91 mg/mL of anti-HER2-C825 (4.8 nmol of BsAb or 9.6 nmol of C825) and 90 μL of [^225Ac]Proteus-DOTA (488 nCi/8.64 nmol) for 1 h at room temperature (final volume 235 μL). As a control, 1 mg of trastuzumab (6.67 nmol) with also mixed in vitro with 90 μL of [^225Ac]Proteus-DOTA (468 nCi/8.64 nmol) in the same manner as the anti-HER2-C825. These two solutions were run separately on PD-10 size-exclusion columns pre-equilibrated with saline+1% human serum albumin, and were compared with the column elution of 90 μL (488 nCi/8.64 nmol) of [^225Ac]Proteus-DOTA only. Elution fractions were counted on the gamma-counter using an open window setting.
# This was done by mixing the BsAb (˜210 kD) in slight molar excess to [^225Ac]Proteus-DOTA (9.6 nmol of C825/8.6 nmol of [^225Ac]Proteus-DOTA), followed by incubation at room temperature for 1 hour.
# [4] = Dose-escalation toxicology study of [^225Ac]Proteus-DOTA in healthy nude mice; type: in vivo
# Procedure: The maximum tolerated dose was not reached. Treated animal weights plotted as the percentage of pre-treatment baseline weight. Asterisk (*) indicates mouse required euthanasia or was discovered deceased. Data is presented as mean ±SD.
# Toxicology study of [^225Ac]Pr-DOTA in healthy mice. A dose-escalation toxicity study was performed to evaluate any morbidity and histopathological damage attributed to [^225Ac]Proteus-DOTA. […] Unscheduled mortality (mice found dead or found sick and euthanized) were submitted for pathology. […] A total of three unscheduled mortalities occurred: 2/5 from the 0.5 μCi dose group; one on day 36 that was submitted for necropsy because of 20% weight loss-no gross pathologic or histopathologic lesions were observed, and no significant findings were observed on hematology and serum chemistry; and by the time the other mouse was found dead on day 144, necropsy was not possible. In addition, one mouse from group 8 μCi was euthanized after 123 days with a Staphylococcus bacterial infection. The significant findings in this mouse were histiocytic and eosinophilic myocardis, eosinophilic interstitial pneumonia, soft tissue hemorrhages, marked thrombocytopenia, and mild anemia with elevation of reticulocytes. The myocarditis, pnemonia, and mild anemia were related to some findings observed at scheduled sacrifice. Such thrombocytopenia with secondary hemorrhages was not observed in other mice in this study. Serum chemistry was unremarkable.
# [5] = n = 3, listed as [^225Ac] Proteus-DOTA
structure (smiles),measurement,setting,value
O=C([O-])CN1CCN(CC(=O)[O-])CCN(CC(=O)NCCOCCOCCOCCOCCNC(=S)Nc2ccc(CC3CN(CC(=O)[O-])CCN(CC(=O)[O-])CCN(CC(=O)[O-])CCN3CC(=O)[O-])cc2)CCN(CC(=O)[O-])CC1.[225Ac+3].[Lu+3] (centres unmarked) [[^225Ac]Proteus-DOTA],Blood uptake,[1]; n = 3,0.31±0.54 % ID/g
same,Bone uptake,[1]; n = 3,0.45 ± 0.79 % ID/g
same,Kidneys uptake,[1]; n = 3,0.63±0.41 % ID/g
same,Large Intestine uptake,[1]; n = 3,0.02 ± 0.02 % ID/g
same,Liver uptake,[1]; n = 3,0.04±0.06 % ID/g
same,Muscle uptake,[1]; n = 3,0.98 ± 0.91 % ID/g
same,Small Intestine uptake,[1]; n = 3,0.16 ± 0.26 % ID/g
same,Spleen uptake,[1]; n = 3,0.04 ± 0.06 % ID/g
same,Stomach uptake,[1]; n = 3,0.24 ± 0.38 % ID/g
same,Blood uptake,[1]; [5],0.31 ± 0.54 % ID/g
same,Kidneys uptake,[1]; [5],0.63 ± 0.41 % ID/g
same,Liver uptake,[1]; [5],0.01 ± 0.02 % ID/g
same,uptake in all assayed tissues,[2],≤ 2 % ID/g
same,tumor accumulation,"[2]; BT-474 xenograft, i.v., n=3",0.50±0.34 % ID/g
same,remaining activity recovered in elution fractions between 4.6-7.1 mL,[3]; PD-10 size-exclusion column,90%
same,recovered ^225Ac-activity eluting within the first 4.1 mL,[3]; PD-10 size-exclusion column after 1 h mixing at room temperature,9.3%
same,toxicity (defined as >10% weight loss),"[4]; 0.25-8 μCi/mouse, 145 days",no toxicity was observed
same,mice affected by histiocytic and eosinophilic inflammation,[4]; 0.25 μCi,0/5
same,mice affected by histiocytic and eosinophilic inflammation,[4]; 0.5 μCi,0/4
same,unscheduled mortalities,[4]; 0.5 μCi dose group (day 36 and day 144),2/5
same,mice affected by histiocytic and eosinophilic inflammation,[4]; 1 μCi,0/5
same,mice affected by histiocytic and eosinophilic inflammation,[4]; 2 μCi,1/5
same,mice affected by histiocytic and eosinophilic inflammation,[4]; 4 μCi,1/5
same,mice affected by histiocytic and eosinophilic inflammation,[4]; 8 Ci group,3/5
same,"unscheduled mortalities (euthanized, Staphylococcus bacterial infection)","[4]; 8 μCi group, after 123 days",one
same,organ weights at necropsy,"[4]; 145 days, varying dose levels",No significant group differences
same,"unscheduled mortalities, total","[4]; all dose groups, 145 days",three
same,radiation-induced histologic organ damage at necropsy,"[4]; any dose level, 145 days",no radiation-induced histologic organ damage
same,effect on serum chemistry,"[4]; any dose level, n=29",No effect
same,"overall toxicity, acute or chronic radiation damage to normal tissues",[4]; doses as high as 8 μCi (296 kBq)/mouse,nontoxic
same,decrease of red blood cells mass,[4]; highest dose group (8 μCi),~10%
same,maximum tolerated dose,[4]; single i.v. doses 0.25-8 μCi/mouse,not reached
